Values after ≈ are worked out from the molar mass of the structure shown.
Experiments:
[1] = target: cyclic AMP phosphodiesterase [サイクリックAMPホスホジエステラーゼ]; experiment: Cyclic AMP phosphodiesterase activity inhibition test (試験例5), HPLC; assay type: biochemical; settings: sample concentration at 50% inhibition of cyclic AMP phosphodiesterase activity, by interpolation; pH 7.5, 37℃, 30 min
[2] = tested on: human breast cancer-derived cells (MCF-7) [ヒト乳癌由来細胞(MCF−7)]; experiment: Estrogen-like action test (試験例2), MTT assay; assay type: cell-based; settings: MCF7, sample solution 3.125 μg/mL, A/B×100 (no sample = 100%), read-out: estrogen-like action rate
[3] = tested on: normal human epidermal keratinocytes (NHEK) [正常ヒト皮膚表皮角化細胞(NHEK)]; experiment: Epidermal keratinocyte proliferation test (試験例4), MTT assay; assay type: cell-based; settings: 72 h, sample solution 3.125 μg/mL, 3 days, St/Ct×100 (no sample = 100%), read-out: epidermal keratinocyte proliferation promotion rate
[4] = tested on: human normal skin fibroblasts (NB1RGB) [ヒト正常皮膚線維芽細胞(NB1RGB)]; experiment: Fibroblast proliferation test (試験例3), MTT assay; assay type: cell-based; settings: 72 h, sample solution 12.5 μg/mL, 100 μL added per well, 3 days, (St−Sb)/(Ct−Cb)×100 (no sample = 100%), read-out: fibroblast proliferation promotion rate

How did the IC50 [1] turn out when CC1OC2OC3C(OCC(O)C3O)OC(=O)C34CCC(C)(C)CC3C3=CCC5C6(C)CC(O)C(OC7OC(CO)C(O)C(O)C7OC7OCC(OC(=O)CC(C)(O)CC(=O)OC1C(OC1OCC(O)C(O)C1O)C2O)C(O)C7O)C(C)(CO)C6CCC5(C)C3(C)CC4 (stereo not shown) [ツベイモシドI, ツベイモシドI(tubeimoside I)] was run?
Its IC50 is 178.9 µg/mL (≈ 136 µM).

What about the activity at 3.125 µg/mL [2] of the same molecule?
The activity at 3.125 µg/mL was 132 ± 3%.

What about the activity at 3.125 µg/mL [3] of the same molecule?
Its activity at 3.125 µg/mL is 139.4 ± 1.3%.

And the activity at 12.5 µg/mL [4]?
The activity at 12.5 µg/mL was 127 ± 2.3%.
